{"source": "patent US20110152269A1", "about": "“PROCESS FOR TREATING ANIMAL HABITATS” (H&S Chemical Company, Inc., priority 2001, published 2011)", "key": {"[1]": {"test": "Ammonia concentration in treated poultry houses during grow out", "conditions": "houses and bedding sprayed with 200 ppm aqueous solution before placement of birds; two houses of 26,000 birds; wood chip bedding; 57 day grow out", "procedure": "Two poultry houses containing 26,000 birds each were treated, by spraying the houses and bedding contained therein, with an aqueous solution of a product sold under the trademark PLT, at a concentration of 200 ppm. Treatment was effected prior to placement of the birds in the poultry houses. The bedding utilized was popular wood chips. After 57 days the grow out was complete. During the grow out periods the concentration of ammonia in the poultry houses varied between 30 and 70 ppm. […] Two poultry houses containing 26,000 birds each were treated by spraying the houses and bedding contained therein with an aqueous solution of TCM, at a concentration of 200 ppm. Treatment was effected prior to placement of the birds in the poultry houses. The bedding utilized was popular wood chips. After 57 days the grow out was complete. During the grow out the concentration of ammonia in the poultry houses never exceeded 20 ppm."}, "salmonella": {"test_system": "salmonella", "test": "Monitoring for salmonella in treated poultry houses during grow out", "conditions": "houses and bedding sprayed with 200 ppm aqueous solution before placement of birds; two houses of 25,000 birds; wood chip bedding; 56 day grow out", "procedure": "Two poultry houses containing 25,000 birds each were treated by spraying the houses and bedding contained therein with an aqueous solution of TCM, at a concentration of 200 ppm. Treatment was effected prior to placement of the birds in the poultry house. The bedding utilized was popular wood chips. After 56 days the grow out was complete. During the grow out the presence of salmonella was monitored.\nAn untreated poultry house containing 25,000 birds was monitored during a 56 day grow out for the presence of salmonella. The bedding utilized was popular wood chips. After 56 days the grow out was complete. During the grow out the poultry house tested positive for salmonella."}}}
{"substance": "trichloromelamine [TCM]", "values": [{"measurement": "concentration of ammonia in the poultry houses", "setting": "[1]", "value": "≤ 20", "unit": "ppm"}, {"measurement": "presence of salmonella during the grow out", "setting": "salmonella", "value": "no salmonella was detected"}]}
